Measurements as given in patent publication US20250296958A1, “GL[…] E[…]” (THE ADMINISTRATORS OF THE TULANE EDUCATIONAL FUND, priority 2022, published 2025).
“Also recorded” adds a separate entry of the source. Where a SMILES comes first, the peptide text is derived from it. Bridges are numbered along the chain shown (N, C = ends). [ ]: non-standard residue; d: D form. The star is where a group is joined. ξ: configuration not given here. X1 = OC[C@H]1O[C@@H](O[C@H]2[C@H](O)[C@@H](O)[C@H](*)O[C@@H]2CO)[C@H](O)[C@@H](O)[C@H]1O; βGlc = OC[C@H]1O[C@@H](*)[C@H](O)[C@@H](O)[C@@H]1O; d1Nal = N[C@H](Cc1cccc2ccccc12)C(=O)O; ξ1Nal = NC(Cc1cccc2ccccc12)C(=O)O

Tests used:
male and female DBA mice = assay: Hot plate (HP) antinociception test; conditions: for rank order of potency (ED50), HP: both mg/kg and μmol/kg values; for HP antinociception, in words: s.c., 5 hr test
mu opioid receptor (MOR) = target: T1, mu opioid receptor (MOR) (Homo sapiens, UniProt P35372); assay: Receptor binding, mu opioid receptor (NIMH PDSP); conditions: for reduction of MOR affinity by glycosylation: relative to unglycosylated reference; for MOR affinity, in words: comparison among analogs
T1 construct: NIMH Psychoactive Drug Screening Program (PDSP), University of North Carolina at Chapel Hill (performed the assay)
T1 sequence (P35372 whole entry): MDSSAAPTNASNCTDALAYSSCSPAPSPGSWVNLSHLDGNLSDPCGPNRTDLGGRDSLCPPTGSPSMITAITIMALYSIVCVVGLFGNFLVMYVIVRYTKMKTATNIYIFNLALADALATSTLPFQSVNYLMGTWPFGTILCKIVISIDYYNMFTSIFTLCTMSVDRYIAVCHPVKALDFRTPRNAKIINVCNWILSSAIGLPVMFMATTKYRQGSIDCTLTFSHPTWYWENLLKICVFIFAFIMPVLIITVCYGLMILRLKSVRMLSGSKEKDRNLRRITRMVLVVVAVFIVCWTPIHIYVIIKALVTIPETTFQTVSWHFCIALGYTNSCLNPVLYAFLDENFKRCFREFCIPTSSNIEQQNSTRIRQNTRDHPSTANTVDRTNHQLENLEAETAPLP
Excerpt: (§1) Receptor Binding Profiles and Ki: The receptor binding an Ki determinations were generously provided by the National Institute of Mental Health's Psychoactive Drug Screening Program (PDSP), Directed by Bryan L. Roth at the University of North Carolina at Chapel Hill and Project Officer Jamie Driscoll at NIMH, Bethesda MD, USA.

[1] = test system: male and female CD-1 mice; assay: Tail flick (TF) antinociception test; format: in vivo; conditions: for rank order of effectiveness, TF AUC: main effects of drug; for rank order of potency (ED50), TF: mg/kg calculations; for TF antinociception AUC: top dose (5.6 mg/kg), mean male and female
Protocol: Tail Flick (TF): CD1 mice were used for this test. The latency to withdraw the tail from a heat source was automatically measured (IITC, Woodland Hills, CA). […] Percent Maximum Possible Effect (% MPE) was determined as [(latency-baseline latency)/(9-baseline latency)]*100.
Statistics/Data Analysis: Data were analyzed with […] PRISM software (GraphPad Software, San Diego CA).

[2] = target: T2, delta opioid receptor (DOR) (Homo sapiens, UniProt P41143); assay: Receptor binding, delta opioid receptor (NIMH PDSP)
T2 construct: NIMH Psychoactive Drug Screening Program (PDSP), University of North Carolina at Chapel Hill (performed the assay)
T2 sequence (P41143 whole entry): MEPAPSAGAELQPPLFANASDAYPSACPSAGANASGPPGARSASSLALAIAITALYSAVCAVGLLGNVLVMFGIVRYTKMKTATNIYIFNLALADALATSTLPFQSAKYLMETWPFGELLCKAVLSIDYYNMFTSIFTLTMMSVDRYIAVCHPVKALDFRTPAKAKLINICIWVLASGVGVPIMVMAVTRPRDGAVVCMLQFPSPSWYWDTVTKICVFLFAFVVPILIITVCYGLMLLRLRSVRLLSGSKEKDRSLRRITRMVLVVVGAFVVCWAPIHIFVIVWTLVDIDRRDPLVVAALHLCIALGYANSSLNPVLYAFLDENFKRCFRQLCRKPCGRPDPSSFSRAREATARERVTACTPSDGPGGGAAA
Excerpt: as §1

[3] = target: T3, kappa opioid receptor (KOR) (Homo sapiens, UniProt P41145); assay: Receptor binding, kappa opioid receptor (NIMH PDSP); conditions: for kap/mu: ratio of KOR-to-MOR binding (Ki)
T3 construct: NIMH Psychoactive Drug Screening Program (PDSP), University of North Carolina at Chapel Hill (performed the assay)
T3 sequence (P41145 whole entry): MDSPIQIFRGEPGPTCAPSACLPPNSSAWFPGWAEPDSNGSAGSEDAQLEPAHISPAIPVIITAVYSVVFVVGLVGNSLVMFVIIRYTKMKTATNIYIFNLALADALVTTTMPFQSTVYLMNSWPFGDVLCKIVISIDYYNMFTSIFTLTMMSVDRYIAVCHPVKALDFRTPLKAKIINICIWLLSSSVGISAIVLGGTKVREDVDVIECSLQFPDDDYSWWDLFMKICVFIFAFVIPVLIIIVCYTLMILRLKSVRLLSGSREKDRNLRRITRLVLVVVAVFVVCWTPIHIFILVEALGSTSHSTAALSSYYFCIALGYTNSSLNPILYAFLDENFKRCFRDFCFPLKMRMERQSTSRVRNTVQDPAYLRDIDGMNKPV
Excerpt: as §1

[4] = test system: delta opioid receptor (DOR); assay: Receptor binding, delta opioid receptor (NIMH PDSP); conditions: ratio of DOR-to-MOR binding (Ki)
Excerpt: as §1

[5] = i.v.; cited from earlier work
male CD-1 mice = assay: Conditioned place preference (CPP)
Protocol: Conditioned Place Preference (CPP): Male CD-1 mice were tested for CPP in a modified 2-chamber apparatus (Noldus, Leesburg, VA). The 20×20 cm chambers had distinct visual and tactile cues: 1) vertical striped walls with circular holes in a metal floor or 2) gray walls with clover-shaped holes. […] Eight arenas were counterbalanced for the cue pattern in the left and right chamber. Tests were conducted in 4 phases: habituation (days 1-2, 30′), baseline (day 4-5, 20′), conditioning (days 6-8, 40′), and testing (day 9, 20′). Two sessions per day were conducted at each phase (9:30 and 10:30 am) and animals were placed in the left chamber in session 1 and the right in session 2. For baseline and testing, both chambers were freely accessible. […] These protocols balanced exposure to the chambers, and for conditioning, minimized drug carry-over effects. CPP was determined as the change in time spent on the drug-associated side minus the time spent on that same side during baseline tests.
After two habituation and two baseline sessions, three conditioning days were conducted. […] The following day, a test session was conducted and CPP was determined as the change in time spent on the drug-associated side minus the time spent on that same side during baseline tests.

Row | Compound | rank order of potency (ED50), HP (male and female DBA mice) | HP antinociception, in words (male and female DBA mice) | reduction of MOR affinity by glycosylation (mu opioid receptor (MOR)) | rank order of effectiveness, TF AUC [1] | rank order of potency (ED50), TF [1] | MOR affinity, in words (mu opioid receptor (MOR)) | Ki [2] | KOR binding, in words [3] | del/mu [4] | DOR binding, in words [2] | kap/mu [3] | other results
1 | NC(=O)[C@H](CO[C@@H]1O[C@H](CO)[C@@H](O)[C@H](O)[C@H]1O)NC(=O)[C@@H]1CCC(=O)NCCCC[C@@H](NC(=O)[C@@H](N)Cc2ccc(O)cc2)C(=O)N[C@@H](Cc2c[nH]c3ccccc23)C(=O)N[C@@H](Cc2ccccc2)C(=O)N1 [Analog A1, Tyr-c[D-Lys-Trp-Phe-Glu]-Ser(β-Glc)-NH2] | A2>A7>A1>ZH853>morphine | not significantly greater than those of reference compounds | approximately 5 fold | A2>A7>A1>morphine>ZH853 | A2>A7>A1>morphine >ZH853 |  |  |  |  |  |  | 
2 | NC(=O)[C@H](CO[C@@H]1O[C@H](CO)[C@@H](O[C@@H]2O[C@H](CO)[C@H](O)[C@H](O)[C@H]2O)[C@H](O)[C@H]1O)NC(=O)[C@@H]1CCC(=O)NCCCC[C@@H](NC(=O)[C@@H](N)Cc2ccc(O)cc2)C(=O)N[C@@H](Cc2c[nH]c3ccccc23)C(=O)N[C@@H](Cc2ccccc2)C(=O)N1 [Analog A2, Tyr-c[D-Lys-Trp-Phe-Glu]-Ser(β-Lact)-NH2] | A2>A7>A1>ZH853>morphine | robust antinociception; also recorded: significantly greater AUC | approximately 5 fold | A2>A7>A1>morphine>ZH853 | A2>A7>A1>morphine >ZH853 |  |  |  |  |  |  | TF antinociception (full) ([1]; 1.8 mg/kg): 100 % MPE; dose lower than morphine for equal total TF antinociception, mg/kg basis ([1]; 1.8 mg/kg A2 matched to 10 mg/kg morphine): 5.55 fold; TF antinociception, in words ([1]; s.c., time course and AUC): remained high at the 5-hour limit of the test; TF antinociception AUC [1]: > 25000
3 | NC(=O)[C@H](CO[C@@H]1O[C@H](CO)[C@@H](O)[C@H](O)[C@H]1O)NC(=O)CNC(=O)[C@@H]1CCC(=O)NCCCC[C@@H](NC(=O)[C@@H](N)Cc2ccc(O)cc2)C(=O)N[C@@H](Cc2c[nH]c3ccccc23)C(=O)N[C@@H](Cc2ccccc2)C(=O)N1 [Analog A3] |  |  |  |  |  | lowest MOR affinity | ≥ 10000 nM | increased KOR affinity |  |  |  | 
4 | NC(=O)[C@H](CO[C@@H]1O[C@H](CO)[C@@H](O)[C@H](O)[C@H]1O)NC(=O)[C@@H]1CCC(=O)NCCCC[C@@H](NC(=O)[C@@H](N)Cc2ccc(O)cc2)C(=O)N[C@H](Cc2cccc3ccccc23)C(=O)N[C@@H](Cc2ccccc2)C(=O)N1 [Analog A4] (H-Y[dK][d1Nal]FES(βGlc)-NH2; lactam 2-5) |  |  |  |  |  |  | ≥ 10000 nM | eliminated delta and kappa binding | 157 | eliminated delta and kappa binding | 157 | Ki (mu opioid receptor (MOR)): 63.5 nM; additional reduction of MOR binding by D-Nal substitution of Trp at position 3 (mu opioid receptor (MOR)): 11 fold; Ki [3]: ≥ 10000 nM
5 | NC(=O)[C@H](CO[C@@H]1O[C@H](CO)[C@@H](O[C@@H]2O[C@H](CO)[C@H](O)[C@H](O)[C@H]2O)[C@H](O)[C@H]1O)NC(=O)[C@@H]1CCC(=O)NCCCC[C@@H](NC(=O)[C@@H](N)Cc2ccc(O)cc2)C(=O)N[C@H](Cc2cccc3ccccc23)C(=O)N[C@@H](Cc2ccccc2)C(=O)N1 [Analog A5] (H-Y[dK][d1Nal]FES(X1)-NH2; lactam 2-5) |  |  |  |  |  |  | ≥ 10000 nM | eliminated delta and kappa binding | 181 | eliminated delta and kappa binding | 181 | Ki (mu opioid receptor (MOR)): 55.2 nM; additional reduction of MOR binding by D-Nal substitution of Trp at position 3 (mu opioid receptor (MOR)): 11 fold; Ki [3]: ≥ 10000 nM
6 | NC(=O)[C@H](CO[C@@H]1O[C@H](CO)[C@@H](O)[C@H](O)[C@H]1O)NC(=O)[C@@H]1CCC(=O)NCCCC[C@@H](NC(=O)[C@@H](N)Cc2ccc(O)cc2)C(=O)NC(Cc2cccc3ccccc23)C(=O)N[C@@H](Cc2ccccc2)C(=O)N1 (some centres unmarked) [Analog A6] (H-Y[dK][ξ1Nal]FES(βGlc)-NH2; lactam 2-5) |  |  | approximately 5 fold |  |  | did not reduce MOR affinity |  | increased KOR affinity | 57 |  | 48 | MOR selectivity, in words (mu opioid receptor (MOR); versus DOR and KOR): least selective compound
7 | NC(=O)[C@H](CO[C@@H]1O[C@H](CO)[C@@H](O)[C@H](O)[C@H]1O)NC(=O)[C@H](CO[C@@H]1O[C@H](CO)[C@@H](O)[C@H](O)[C@H]1O)NC(=O)[C@@H]1CCC(=O)NCCCC[C@@H](NC(=O)[C@@H](N)Cc2ccc(O)cc2)C(=O)N[C@@H](Cc2c[nH]c3ccccc23)C(=O)N[C@@H](Cc2ccccc2)C(=O)N1 [Analog A7, Tyr-c[D-Lys-Trp-Phe-Glu]-Ser(β-Glc)-Ser(β-Glc)-NH2] | A2>A7>A1>ZH853>morphine | robust antinociception; also recorded: significantly greater AUC | approximately 5 fold | A2>A7>A1>morphine>ZH853 | A2>A7>A1>morphine >ZH853 | did not change MOR affinity |  | below detectable levels |  | below detectable levels |  | greater HP effectiveness versus control compounds (AUC) (male and female DBA mice; 1.8 mg/kg vs 5.6 mg/kg for controls): approximately 3 fold
8 | NC(=O)CNC(=O)[C@@H]1CCC(=O)NCCCC[C@@H](NC(=O)[C@@H](N)Cc2ccc(O)cc2)C(=O)N[C@@H](Cc2c[nH]c3ccccc23)C(=O)N[C@@H](Cc2ccccc2)C(=O)N1 [ZH853, reference compound] | A2>A7>A1>ZH853>morphine |  |  | A2>A7>A1>morphine>ZH853 | A2>A7>A1>morphine >ZH853 | subnanomolar Ki, showed the highest MOR affinity | 271 nM |  |  |  |  | time of peak response, TF ([1]; s.c.): 30 to 40 min; TF antinociception AUC [1]: 10000; morphine equivalence [5]: about 1
9 | CN1CC[C@]23c4c5ccc(O)c4O[C@H]2[C@@H](O)C=C[C@H]3[C@H]1C5 [morphine, reference compound] | A2>A7>A1>ZH853>morphine |  |  |  | A2>A7>A1>morphine >ZH853 |  |  |  |  |  |  | TF antinociception (full) ([1]; 10 mg/kg, n=6): 100 % MPE; time of peak response, TF ([1]; s.c.): 20 to 30 min; CPP versus vehicle (male CD-1 mice; 3.2 mg/kg, one-way analysis, p<0.01): greater than vehicle; conditioned place preference (CPP) (male CD-1 mice; 3 equiantinociceptive doses, s.c., n=12): produced CPP
